Data: patent publication US20240254199A1, “MODIFIED MAMMALIAN CELLS” (Genentech, Inc., priority 2021, published 2024)

Experiments:
Assay type in all cases: cell-based, Chinese hamster
[1] = system: mAb2-expressing CHO-K1 cells; assay: Fed-batch production of mAb2-expressing CHO cell line with PDGFRa inhibitor and/or insulin; conditions: added on Day 3 of fed-batch production
Description: Fed-batch production cultures were performed as disclosed here and below in Example 2, with proprietary chemically defined medium using different vessels (e.g., tube-spin and AMBR15) along with bolus feeds on Days 3, 7 and 10 as previously mentioned (Hsu, Aulakh, Traul, & Yuk, 2012). Anti-cell aggregation agent was used in all cultures during production assay to prevent cell aggregation due to the release of DNA from dying cells. Cells were seeded at low (1-2×10^6 cells/mL) or high (10×10^6 cells/mL) seeding densities using lean or rich production media. Cultures were temperature shifted from 37° C. to 35° C. on Day 3. Titers were determined using Protein-A affinity chromatography with UV detection. Percent viability and viable cell count were determined using a Vi-Cell XR instrument (Beckman Coulter Item #383721).
(§1) It was previously shown that UPR-induced poor growth profiles correlated with a decrease in PDGFRa levels (FIGS. 19A and 19B) (Tung, et al., 2018). PDGFRa and insulin signaling pathways have overlapping downstream targets (FIG. 21A), however insulin signaling negatively regulates PDGFRa signaling (Cirri, et al., 2005). […]

empty host CHO-K1 cells = assay: Seed train growth of empty host CHO-K1 cells with PDGFRa inhibitor and/or insulin
Description: 1.5 million cells were lysed in 1× NP40 buffer (10 mM Tris, pH 8.0, 0.5% NP40, 150 mM NaCl, 10 mM DTT and 5 mM MgCl2) containing protease inhibitor cocktails (Roche EDTA free mini-tablets cocktail) for 20 min on ice. Lysates were subjected to sodium dodecyl sulfate-polyacrylamide gel electrophoresis (SDS-PAGE) (4-12% Tris glycine) and transferred to nitrocellulose membrane. After blocking with 5% milk in tris-buffered saline (TBS)-0.1% Tween buffer, the membranes were blotted with respective antibodies. Blots were visualized using HRP-conjugated anti-rabbit anti-body and SuperSignal West Dura Extended Duration Substrate. The following inhibitors were used: ATF6i (10 μM Ceapin-A7 (Gallagher, et al., 2016)), PERKi (10 μM Compound 39 (Axten, et al., 2012)), IRE1i6 (10 μM 4u8c (Cross, et al., 2012)), IRE1i9 (10 μM in-house/Genentech), PDGFRi (5-20 μM Abcam, AG-1296). The following antibodies were used: anti-PDGFRa (Cell Signaling Technology (CST), D1E1E), rabbit anti-BiP (C50B12, Cell Signaling Technology, 3177), rabbit anti-PERK (CST, C33E10), mouse anti-o-actin-HRP (AC-15) (Abcam, ab49900), rabbit anti-phospho-Akt (Ser473) (CST, D9E), rabbit anti-Akt (CST, 5G3), rabbit cleaved caspase3 (CST, asp175), goat anti-human IgG-HRP (MP Biomedicals, 0855252), rabbit IRE1a (CST, 14C10), mouse anti-phospho-IRE1, mouse anti-XBP1, rabbit anti-Bax (Abcam, ab32503), rabbit anti-Bak (CST, D4E4), donkey anti-rabbit HRP (Jackson ImmunoResearch Laboratories, Inc., 711-035-152), rabbit anti-sod2 (CST, D3×8F)
as §1

PDGFRa = PDGFRa protein (western blot) and mRNA (qPCR) levels upon chemical UPR induction; conditions: seed train, mAb1-expressing CHO DG44 and CHO-K1, optimal pH
Description: 1.5 million cells were lysed in 1× NP40 buffer (10 mM Tris, pH 8.0, 0.5% NP40, 150 mM NaCl, 10 mM DTT and 5 mM MgCl2) containing protease inhibitor cocktails (Roche EDTA free mini-tablets cocktail) for 20 min on ice. Lysates were subjected to sodium dodecyl sulfate-polyacrylamide gel electrophoresis (SDS-PAGE) (4-12% Tris glycine) and transferred to nitrocellulose membrane. After blocking with 5% milk in tris-buffered saline (TBS)-0.1% Tween buffer, the membranes were blotted with respective antibodies. Blots were visualized using HRP-conjugated anti-rabbit anti-body and SuperSignal West Dura Extended Duration Substrate. The following inhibitors were used: ATF6i (10 μM Ceapin-A7 (Gallagher, et al., 2016)), PERKi (10 μM Compound 39 (Axten, et al., 2012)), IRE1i6 (10 μM 4u8c (Cross, et al., 2012)), IRE1i9 (10 μM in-house/Genentech), PDGFRi (5-20 μM Abcam, AG-1296). […]
An interesting phenomenon was previously described where activation of UPR in seed train culture, triggered by lower pH conditions in a particular CHO cell line, negatively affected culture growth in production media at target pH (Tung, et al., 2018). When exposed to low pH conditions, high intracellular BiP levels were detected in this cell line that correlated to low growth profiles during production and poor bioprocess outcomes (Tung, et al., 2018). […]

Molecule	cell growth and viability in fed-batch production [1]	reduction of cell growth (empty host CHO-K1 cells; 20 μM, empty host CHO-K1 cells, seed train media, 4 days)	PDGFRa levels (protein and mRNA) (PDGFRa)	Akt phosphorylation (empty host CHO-K1 cells; insulin added to cultures with PDGFRa inhibitor, western blot)	cellular growth of cultures treated with the PDGFRa inhibitor (empty host CHO-K1 cells; insulin added to seed train cultures with PDGFRa inhibitor)
COc1cc2ncc(-c3ccccc3)nc2cc1OC [PDGFRa inhibitor, AG-1296]	significantly decreased cell growth, without affecting cell viability	approximately 50%			
Tunicamycin			reduced at both the protein and mRNA levels		
insulin	partially rescued the observed cell growth inhibition			increased Akt phosphorylation	partially rescued cellular growth
